Measured values as given in patent publication US20120152149A1, “USE OF 1,3-DIOLS AS BIOCIDES” (BASF SE, priority 2009, published 2012).
Like-named read-outs stand apart in the source and are kept apart here.

Legend:
Type in all cases: cell-based
A. niger IMI 149007 = assay: Microstatic activity, MIC in tryptone soy broth; details: Aspergillus niger, IMI149007, 120 h, 25° C., 5 days
In short: (§1)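 Diols dissolved at 40 wt% in propylene glycol at 60 °C, diluted in tryptone soy broth to 400 000–3125 ppm, then inoculated (0.1 ml organism per 5 ml). Bacteria incubated 48 h at 30 °C, fungi 5 days at 25 °C. MIC taken as a range between the last concentration showing visible growth/clouding and the first without.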

C. albicans NCPF 3179 = assay: Microstatic activity, MIC in tryptone soy broth; details: Candida albicans, NCPF3179, 120 h, 25° C., 5 days
In short: as §1

E. coli NCIMB 8545 = assay: Microstatic activity, MIC in tryptone soy broth; details: Escherichia coli, NCIMB8545, 30° C., 48 hours
In short: as §1

[1] = tested on: P. aeruginosa NCIMB 10421; assay: Microstatic activity, MIC in tryptone soy broth; details: Pseudomonas aeruginosa, NCIMB10421, 30° C., 48 hours, lower limit of MIC range, read-out: MIC value (ppm of diol), from
In short: as §1

P. vulgaris NCIMB 4175 = assay: Microstatic activity, MIC in tryptone soy broth; details: Proteus vulgaris, NCIMB4175, 30° C., 48 hours
In short: as §1

S. aureus NCIMB 9578 = assay: Microstatic activity, MIC in tryptone soy broth; details: Staphylococcus aureus, NCIMB9578, 30° C., 48 hours
In short: as §1

A. niger ATCC 16404 [2] = assay: Preservation stress test, example formulation 1 (standard emulsion O/W); details: 1% active substance
In short: (§2)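 O/W emulsion containing 1% diol (water as placebo), inoculated individually or as mixed culture at 10^5-10^6 CFU/g and held 28 d at 20-25° C. Surviving counts at 0, 2, 7, 14 and 28 d after dilution in neutralising phosphate buffer pH 7.4 with Tween 80/lecithin; expressed as log reduction from initial count.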

C. albicans ATCC 10231 [3] = assay: as above; details: 1% active substance
In short: as §2

A. niger ATCC 16404 [4] = assay: Preservation stress test, example formulation 2 (roll-on deodorant formulation); details: 1% active substance
C. albicans ATCC 10231 [5] = assay: as above; details: 1% active substance
E. coli ATCC 10536 = assay: as above; details: 1% active substance
P. aeruginosa ATCC 15442 = assay: as above; details: 1% active substance
S. aureus ATCC 6538 = assay: as above; details: 1% active substance
[6] = lower limit of MIC range, read-out: MIC value (ppm of diol), from
[7] = upper limit of MIC range, read-out: MIC value (ppm of diol), to

Structure (SMILES): CCCCCC(CO)(CO)CCC [PPPD, 2-pentyl-2-propylpropane-1,3-diol]
- MIC (A. niger IMI 149007; [6]): > 6.25 mg/mL
- MIC (A. niger IMI 149007; [7]): ≤ 12.5 mg/mL
- MIC (C. albicans NCPF 3179; [6]): > 6.25 mg/mL
- MIC (C. albicans NCPF 3179; [7]): ≤ 12.5 mg/mL
- MIC (E. coli NCIMB 8545; [6]): > 50 mg/mL
- MIC (E. coli NCIMB 8545; [7]): ≤ 100 mg/mL
- MIC [1]: > 100 mg/mL
- MIC (P. vulgaris NCIMB 4175; [6]): > 25 mg/mL
- MIC (P. vulgaris NCIMB 4175; [7]): ≤ 50 mg/mL
- MIC (S. aureus NCIMB 9578; [6]): > 50 mg/mL
- MIC (S. aureus NCIMB 9578; [7]): ≤ 100 mg/mL
- Microbicidal activity given as logarithmic reduction in germ count (A. niger ATCC 16404 [2]; 48 h): 0 log. Red.
- Microbicidal activity given as logarithmic reduction in germ count (A. niger ATCC 16404 [2]; 7 d): 1 log. Red.
- Microbicidal activity given as logarithmic reduction in germ count (A. niger ATCC 16404 [2]; 14 d): 1 log. Red.
- Microbicidal activity given as logarithmic reduction in germ count (A. niger ATCC 16404 [2]; 28 d): 1 log. Red.
- Microbicidal activity given as logarithmic reduction in germ count (C. albicans ATCC 10231 [3]; 48 h): ≧3 log. Red.
- Microbicidal activity given as logarithmic reduction in germ count (C. albicans ATCC 10231 [3]; 7 d): 5 log. Red.
- Microbicidal activity given as logarithmic reduction in germ count (C. albicans ATCC 10231 [3]; 14 d): 5 log. Red.
- Microbicidal activity given as logarithmic reduction in germ count (C. albicans ATCC 10231 [3]; 28 d): 5 log. Red.
- Microbicidal activity given as logarithmic reduction in germ count (A. niger ATCC 16404 [4]; 48 h): 0 log. Red.
- Microbicidal activity given as logarithmic reduction in germ count (A. niger ATCC 16404 [4]; 7 d): 0 log. Red.
- Microbicidal activity given as logarithmic reduction in germ count (A. niger ATCC 16404 [4]; 14 d): 0 log. Red.
- Microbicidal activity given as logarithmic reduction in germ count (C. albicans ATCC 10231 [5]; 48 h): 0 log. Red.
- Microbicidal activity given as logarithmic reduction in germ count (C. albicans ATCC 10231 [5]; 7 d): 0 log. Red.
- Microbicidal activity given as logarithmic reduction in germ count (C. albicans ATCC 10231 [5]; 14 d): 0 log. Red.
- Microbicidal activity given as logarithmic reduction in germ count (E. coli ATCC 10536; 48 h): ≧3 log. Red.
- Microbicidal activity given as logarithmic reduction in germ count (E. coli ATCC 10536; 7 d): 5 log. Red.
- Microbicidal activity given as logarithmic reduction in germ count (E. coli ATCC 10536; 14 d): 5 log. Red.
- Microbicidal activity given as logarithmic reduction in germ count (E. coli ATCC 10536; 28 d): 5 log. Red.
- Microbicidal activity given as logarithmic reduction in germ count (P. aeruginosa ATCC 15442; 48 h): 5 log. Red.
- Microbicidal activity given as logarithmic reduction in germ count (P. aeruginosa ATCC 15442; 7 d): 5 log. Red.
- Microbicidal activity given as logarithmic reduction in germ count (P. aeruginosa ATCC 15442; 14 d): 5 log. Red.
- Microbicidal activity given as logarithmic reduction in germ count (P. aeruginosa ATCC 15442; 28 d): 5 log. Red.
- Microbicidal activity given as logarithmic reduction in germ count (S. aureus ATCC 6538; 48 h): 5 log. Red.
- Microbicidal activity given as logarithmic reduction in germ count (S. aureus ATCC 6538; 7 d): 5 log. Red.
- Microbicidal activity given as logarithmic reduction in germ count (S. aureus ATCC 6538; 14 d): 5 log. Red.
- Microbicidal activity given as logarithmic reduction in germ count (S. aureus ATCC 6538; 28 d): 5 log. Red.
